The values that follow come from US20080182859A1 (Curis, Inc., priority 2006, published 2008).

What all share (assay type): cell-based
The test system of test [1] is sonic hedgehog pathway. As to the kind of experiment: Hedgehog pathway Gli-luciferase reporter assay, TM3 cells. Conditions: TM3 mouse Leydig cells. From the text: (§1) Mouse (TM3: mouse Leydig cells; S12: mouse embryonic mesenchymal cells) and human (Daoy: human medulloblastoma cell; HepM: human embryonic palatal mesenchymal cell) cell lines are used to screen small molecules for their ability to modulate the activity of the sonic hedgehog pathway (Table 1, Table 2, and Table 3). Stable hedgehog pathway reporter cell lines are established by specific antibiotic selection following transfection of a reporter plasmid containing a luciferase gene located directly downstream from the gli promoter. Consequently, any observable changes in cellular luciferase activity may be attributed to changes in sonic hedgehog pathway activity in mouse and human cells, respectively, since gli is the major by-product of this pathway. To calculate activity, we generate an eleven point dose curve for each compound using 1:3 dilutions in 96 well assay plates. Each plate tested also contains low and high control to establish maximal pathway activation so to establish/compare a percentage activation of each tested compound (AMAX) on respective plates. Also we calculate EC50 values, or a concentration where the pathway will be exactly 50% activated, for each tested compound to determine potency. In these cell lines, compounds that register >20% AMAX values are considered active.
(§2) Stable hedgehog pathway reporter cell lines are established following specific antibiotic selection following transfection of a reporter plasmid In short, typically cells are plated in MicroTiter-plates at 10,000-20,000 cells per well, in growth media (containing 10%-20% FBS). After 48-72 hrs (HGL and DGL respectively) the media in the assay plates is switched to low-serum containing media (0.5% FBS). At that time compounds are added (at 1-5 μM) to the assay plates, in the presence or absence of hedgehog protein (octyl-modified version; 1-5 ng/ml). After another 24 hrs of incubation, the media from the assay plates is discarded and replaced with luciferase assay-mix. Subsequently, plates are incubated at RT for ˜15-30 mins and then read in a luminometer. [note: addition of the Hedgehog protein, although not critical, will sensitize the assay allowing the identification of weak actives].
A general note: Reporter assays use an easily measured gene product as a stand-in for the process of interest.

The test system of test [2] is sonic hedgehog pathway. Kind of test: Human hedgehog reporter assay HEPM-GliLuc (HGL). Conditions: HepM human embryonic palatal mesenchymal cells, Gli-luciferase reporter.
Excerpt: as §1, §2

Test [3] relates to sonic hedgehog pathway. Kind of test: Human hedgehog reporter assay Daoy-GliLuc (DGL). Conditions: Daoy human medulloblastoma cells, Gli-luciferase reporter; read-out: Daoy Avg. EC50.
Excerpt: as §1, §2

Where a name gives a salt, the structure may show the parent alone.

On to `CN[C@H]1CC[C@@H](N(Cc2cc(-c3cncnc3)ccc2OC)C(=O)c2sc3ccccc3c2Cl)CC1` [324 (R20)], for which the EC50 was 50 to 250 nM in the test with sonic hedgehog pathway [1], 50 to 250 nM with sonic hedgehog pathway [2] and less than 50 nM in the test on sonic hedgehog pathway [3].
Take `CN[C@H]1CC[C@@H](N(Cc2cc(-c3cnccn3)ccc2OC)C(=O)c2sc3ccccc3c2Cl)CC1` [330 (R22)]: the figures for the EC50 with sonic hedgehog pathway [1], in the test on sonic hedgehog pathway [2] and in the test on sonic hedgehog pathway [3] were 50 to 250 nM, 50 to 250 nM and less than 50 nM, respectively.
Regarding `CN[C@H]1CC[C@@H](N(Cc2cc(-c3cncnc3)ccc2OC)C(=O)c2sc3c(F)ccc(F)c3c2Cl)CC1` [343 (R15)], the EC50 in the test on sonic hedgehog pathway [1], with sonic hedgehog pathway [2] and in the test on sonic hedgehog pathway [3] was less than 50 nM each time.
In the case of `CN[C@H]1CC[C@@H](N(Cc2cc(-c3cnccn3)ccc2OC)C(=O)c2sc3c(F)ccc(F)c3c2Cl)CC1` [344 (R14)], the EC50 in the test on sonic hedgehog pathway [1], in the test on sonic hedgehog pathway [2] and in the test on sonic hedgehog pathway [3] was less than 50 nM in each case.
In the case of `CN[C@H]1CC[C@@H](N(Cc2cc(-c3ccc(N)nc3)ccc2OC)C(=O)c2sc3c(F)ccc(F)c3c2Cl)CC1` [352 (R18)], the EC50 in the test with sonic hedgehog pathway [1], with sonic hedgehog pathway [2] and in the test on sonic hedgehog pathway [3] was less than 50 nM throughout.
Regarding `CNC(=O)c1cc(-c2ccc(OC)c(CN(C(=O)c3sc4c(F)ccc(F)c4c3Cl)[C@H]3CC[C@@H](NC)CC3)c2)ccn1` [356 (R16)], the concentration giving a half-maximal response (EC50) in the test with sonic hedgehog pathway [1], in the test with sonic hedgehog pathway [2] and with sonic hedgehog pathway [3] was less than 50 nM throughout.
In the case of `CNC(=O)c1cc(-c2ccc(OC)c(CN(C(=O)c3sc4c(F)ccc(F)c4c3Cl)[C@H]3CC[C@H](NC)CC3)c2)ccn1` [356 (R21), 4-(3-{[(3-Chloro-4,7-difluoro-benzo[b]thiophene-2-carbonyl)-(4-methylamino-cyclohexyl)-amino]-methyl}-4-methoxy-phenyl)-pyridine-2-carboxylic acid methylamide dihydrochloride], the EC50 in the test on sonic hedgehog pathway [1], with sonic hedgehog pathway [2] and with sonic hedgehog pathway [3] was less than 50 nM in each case.
`CN[C@H]1CC[C@@H](N(Cc2cc(-c3ccc(C#N)cc3)ccc2OC)C(=O)c2sc3ccccc3c2Cl)CC1` [Compound 301, 3-Chloro-benzo[b]thiophene-2-carboxylic acid (4′-cyano-4-methoxy-biphenyl-3-ylmethyl)-(4-methylamino-cyclohexyl)-amide hydrochloride]: the EC50 is less than 50 nM with sonic hedgehog pathway [1], 50 to 250 nM in the test on sonic hedgehog pathway [2] and less than 50 nM in the test with sonic hedgehog pathway [3].
As to `CN[C@H]1CC[C@@H](N(Cc2cc(-c3ccc(C(=O)C(F)(F)F)cc3)ccc2OC)C(=O)c2sc3ccccc3c2Cl)CC1` [Compound 302, 3-Chloro-benzo[b]thiophene-2-carboxylic acid [4-methoxy-4′-(2,2,2-trifluoro-acetyl)-biphenyl-3-ylmethyl]-(4-methylamino-cyclohexyl)-amide trifluoroacetate], the EC50 in the test on sonic hedgehog pathway [1], in the test on sonic hedgehog pathway [2] and in the test on sonic hedgehog pathway [3] was less than 50 nM throughout.
For `CN[C@H]1CC[C@@H](N(Cc2cc(-c3cccc(C#N)c3)ccc2OC)C(=O)c2sc3ccccc3c2Cl)CC1` [Compound 304, 3-Chloro-benzo[b]thiophene-2-carboxylic acid (3′-cyano-4-methoxy-biphenyl-3-ylmethyl)-(4-methylamino-cyclohexyl)-amide hydrochloride], the EC50 in the test on sonic hedgehog pathway [1], with sonic hedgehog pathway [2] and in the test on sonic hedgehog pathway [3] was less than 50 nM each time.
Take `CN[C@H]1CC[C@@H](N(Cc2cc(-c3ccc(OC)cc3)ccc2OC)C(=O)c2sc3ccccc3c2Cl)CC1` [Compound 305, 3-Chloro-benzo[b]thiophene-2-carboxylic acid (4,4′-dimethoxy-biphenyl-3-ylmethyl)-(4-methylamino-cyclohexyl)-amide hydrochloride]: the EC50 was less than 50 nM with sonic hedgehog pathway [1], 250 to 1000 nM with sonic hedgehog pathway [2] and less than 50 nM in the test with sonic hedgehog pathway [3].
`CCOc1ccc(-c2ccc(C(=O)C(F)(F)F)cc2)cc1CN(C(=O)c1sc2ccccc2c1Cl)[C@H]1CC[C@@H](NC)CC1` [Compound 310, 3-Chloro-benzo[b]thiophene-2-carboxylic acid [4-ethoxy-4′-(2,2,2-trifluoro-acetyl)-biphenyl-3-ylmethyl]-(4-methylamino-cyclohexyl)-amide hydrochloride]: the EC50 in the test on sonic hedgehog pathway [1], in the test with sonic hedgehog pathway [2] and in the test on sonic hedgehog pathway [3] was less than 50 nM in each case.
Consider `CCOc1ccc(-c2ccc(C(C)=O)cc2)cc1CN(C(=O)c1sc2ccccc2c1Cl)[C@H]1CC[C@@H](NC)CC1` [Compound 311, 3-Chloro-benzo[b]thiophene-2-carboxylic acid (4′-acetyl-4-ethoxy-biphenyl-3-ylmethyl)-(4-methylamino-cyclohexyl)-amide hydrochloride], for which the EC50 is less than 50 nM in the test with sonic hedgehog pathway [1], 50 to 250 nM with sonic hedgehog pathway [2] and less than 50 nM in the test with sonic hedgehog pathway [3].
In the case of `CN[C@H]1CC[C@@H](N(Cc2cc(-c3ccc(N(C)C=O)cc3)ccc2OC)C(=O)c2sc3ccccc3c2Cl)CC1` [Compound 315, 3-Chloro-benzo[b]thiophene-2-carboxylic acid [4′-(formyl-methyl-amino)-4-methoxy-biphenyl-3-ylmethyl]-(4-methylamino-cyclohexyl)-amide trifluoroacetate], the results for the EC50 with sonic hedgehog pathway [1], in the test on sonic hedgehog pathway [2] and in the test with sonic hedgehog pathway [3] were less than 50 nM, 250 to 1000 nM and 50 to 250 nM, respectively.
For `CN[C@H]1CC[C@@H](N(Cc2cc(-c3ccc(N(C)C(C)=O)cc3)ccc2OC)C(=O)c2sc3ccccc3c2Cl)CC1` [Compound 318, 3-Chloro-benzo[b]thiophene-2-carboxylic acid [4′-(acetyl-methyl-amino)-4-methoxy-biphenyl-3-ylmethyl]-(4-methylamino-cyclohexyl)-amide hydrochloride], the EC50 in the test on sonic hedgehog pathway [1], with sonic hedgehog pathway [2] and in the test with sonic hedgehog pathway [3] was less than 50 nM throughout.
`CCOc1ccc(-c2cnc(N)nc2)cc1CN(C(=O)c1sc2ccccc2c1Cl)[C@H]1CC[C@@H](NC)CC1` [Compound 325, 3-Chloro-benzo[b]thiophene-2-carboxylic acid [5-(2-amino-pyrimidin-5-yl)-2-ethoxy-benzyl]-(4-methylamino-cyclohexyl)-amide dihydrochloride]: the EC50 was 250 to 1000 nM in the test on sonic hedgehog pathway [1], 50 to 250 nM in the test on sonic hedgehog pathway [2] and less than 50 nM with sonic hedgehog pathway [3].
With `CN[C@H]1CC[C@@H](N(Cc2cc(-c3cc(C)nc(C)c3)ccc2OC)C(=O)c2sc3ccccc3c2Cl)CC1` [Compound R1, 3-Chloro-benzo[b]thiophene-2-carboxylic acid [5-(2,6-dimethyl-pyridin-4-yl)-2-methoxy-benzyl]-(4-methylamino-cyclohexyl)-amide dihydrochloride], the EC50 in the test on sonic hedgehog pathway [1] was less than 50 nM; with sonic hedgehog pathway [2] it was 50 to 250 nM.
For the compound `CCOc1ccc(-c2ccc(C#N)cc2)cc1CN(C(=O)c1sc2ccccc2c1Cl)[C@H]1CC[C@@H](NC)CC1` [Compound R2, 3-Chloro-benzo[b]thiophene-2-carboxylic acid (4′-cyano-4-ethoxy-biphenyl-3-ylmethyl)-(4-methylamino-cyclohexyl)-amide hydrochloride], the EC50 in the test with sonic hedgehog pathway [1] and in the test with sonic hedgehog pathway [2] was 50 to 250 nM throughout.
`CCOc1ccc(-c2ccc(C)nc2)cc1CN(C(=O)c1sc2ccccc2c1Cl)[C@H]1CC[C@@H](NC)CC1` [Compound R4, 3-Chloro-benzo[b]thiophene-2-carboxylic acid [2-ethoxy-5-(6-methyl-pyridin-3-yl)-benzyl]-(4-methylamino-cyclohexyl)-amide dihydrochloride]: the EC50 with sonic hedgehog pathway [1] and in the test on sonic hedgehog pathway [2] was 50 to 250 nM in each case.
`CN[C@H]1CC[C@@H](N(Cc2cc(-c3ccnc(C(=O)O)c3)ccc2OC)C(=O)c2sc3c(F)ccc(F)c3c2Cl)CC1` [Compound R6, 4-(3-{[(3-Chloro-4,7-difluoro-benzo[b]thiophene-2-carbonyl)-(4-methylamino-cyclohexyl)-amino]-methyl}-4-methoxy-phenyl)-pyridine-2-carboxylic acid bis(trifluoroacetate)]: the EC50 in the test with sonic hedgehog pathway [1] and in the test with sonic hedgehog pathway [2] was 50 to 250 nM in each case.
For the compound `CN[C@H]1CC[C@@H](N(Cc2cc(-c3ccc(S(C)(=O)=O)cc3)ccc2OC)C(=O)c2sc3ccccc3c2Cl)CC1` [Compound R7, 3-Chloro-benzo[b]thiophene-2-carboxylic acid (4′-methanesulfonyl-4-methoxy-biphenyl-3-ylmethyl)-(4-methylamino-cyclohexyl)-amide hydrochloride], the half-maximal effective concentration (EC50) in the test on sonic hedgehog pathway [1] and with sonic hedgehog pathway [2] was less than 50 nM each time.
For the compound `CN[C@H]1CC[C@@H](N(Cc2cc(-c3ccc(C(N)=O)cc3)ccc2OC)C(=O)c2sc3c(F)ccc(F)c3c2Cl)CC1` [Compound R8, 3-Chloro-4,7-difluoro-benzo[b]thiophene-2-carboxylic acid (4′-carbamoyl-4-methoxy-biphenyl-3-ylmethyl)-(4-methylamino-cyclohexyl)-amide hydrochloride], the EC50 in the test with sonic hedgehog pathway [1] and with sonic hedgehog pathway [2] was less than 50 nM in each case.

Usually EC50 stands for the concentration giving half of the maximal effect.
